Reference: PubChem BioAssay (NCI)
Several values for one entry are separate records, joined by “and”; a condition that tells them apart may be missing. Equal entries are not always repeated.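 The compound was tested at five concentrations on cells cultured in 96-well plates, with a 48-hour exposure period. GI50 = concentration required for 50% inhibition of growth. TGI is the concentration that stops growth completely.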

Legend:
Test in all cases: NCI-60 cell line screen, 48 h
HOP-92 NSCLC = system: HOP-92 NSCLC
NCI-H460 lung = system: NCI-H460 lung
MCF7 breast = system: MCF7 breast
HT29 colon = system: HT29 colon
A549 NSCLC = system: A549 NSCLC
OVCAR-5 ovarian = system: OVCAR-5 ovarian
CCRF-CEM leukemia = system: CCRF-CEM leukemia
TK-10 renal = system: TK-10 renal
SK-MEL-28 melanoma = system: SK-MEL-28 melanoma
NCI/ADR-RES ovarian = system: NCI/ADR-RES ovarian
OVCAR-3 ovarian = system: OVCAR-3 ovarian

| SMILES | TGI (HOP-92 NSCLC) [µM] | TGI (NCI-H460 lung) [µM] | TGI (MCF7 breast) [µM] | TGI (HT29 colon) [µM] | TGI (A549 NSCLC) [µM] | TGI (OVCAR-5 ovarian) [µM] | TGI (CCRF-CEM leukemia) [µM] | TGI (TK-10 renal) [µM] | TGI (SK-MEL-28 melanoma) | TGI (NCI/ADR-RES ovarian) [µM] | TGI (OVCAR-3 ovarian) [µM] | GI50 (NCI/ADR-RES ovarian) [µM] | GI50 (CCRF-CEM leukemia) [µM] | GI50 (HOP-92 NSCLC) [µM] | GI50 (TK-10 renal) [µM] | GI50 (SK-MEL-28 melanoma) [µM] | GI50 (MCF7 breast) [µM] | GI50 (A549 NSCLC) [µM] | GI50 (OVCAR-5 ovarian) [µM] | GI50 (OVCAR-3 ovarian) [µM] |
| --- | --- | --- | --- | --- | --- | --- | --- | --- | --- | --- | --- | --- | --- | --- | --- | --- | --- | --- | --- | --- |
| c1csc(C(NC2=NCCO2)C2CC2)c1 (stereo not drawn) | > 100 | > 100 | > 100 | > 100 | > 100 | > 100 | – | – | – | – | – | – | – | – | – | – | – | – | – | – |
| O=C([O-])C1([n+]2c(-c3ccccc3)cc(-c3ccccc3)cc2-c2ccccc2)CC1 | > 100 | > 100 | > 100 | > 100 | > 100 | > 100 | > 100 | > 100 | > 100 µM | > 100 | > 100 | – | – | – | – | – | – | – | – | – |
| CC(N)=O.[Cl][Pt][Cl].[NH-]c1ccn(C2OC(CO)C(O)C2O)c(=O)n1 (stereo not drawn) | > 100 | > 100 | > 100 | > 100 | > 100 | > 100 | > 100 | > 100 | > 100 µM | > 100 | > 100 | – | – | – | – | – | – | – | – | – |
| O=S(=O)(c1ccc2ccccc2c1)N1CCN(S(=O)(=O)c2ccc3ccccc3c2)CC1 | > 100 | > 100 | > 100 | > 100 | > 100 | > 100 | > 100 | > 100 | > 100 µM | > 100 | > 100 | – | – | – | – | – | – | – | – | – |
| Clc1cccc(C2SCc3nc4ccccc4n32)c1 (stereo not drawn) | 30.4 | > 100 | – | 67.2 | > 100 | 95.6 | > 100 | 63.9 | 46.2 µM | – | 29.1 | – | – | – | – | – | – | – | – | – |
| CO/C(=N\N=C(/c1ccccc1)C(F)(F)F)c1ccncc1 | > 100 | > 100 | > 100 | > 100 | – | > 100 | 77 | – | > 100 µM | 71.6 | > 100 | – | – | – | – | – | – | – | – | – |
| Clc1ccc(-c2nnc(-c3nsc4ccccc34)o2)cc1 | 46.2 | > 100 | – | > 100 | > 100 | > 100 | – | 51.2 | > 100 µM | – | 32 | – | – | – | – | – | – | – | – | – |
| N/C(=N\N=C/c1cc([N+](=O)[O-])cc([N+](=O)[O-])c1O)NO | > 100 | > 100 | > 100 | > 100 | > 100 | > 87.3 | > 100 | – | > 100 µM | > 100 | > 100 | – | – | – | – | – | – | – | – | – |
| CC(=O)Nc1cc(/C=C\C(=O)N2CC(CCl)c3c2cc(N)c2ccccc32)n(C)n1 (stereo not drawn) | > 100 | – | > 100 | – | – | – | 0.012 | > 100 | 0.0382 µM and 0.177 µM | – | > 100 | 0.103 | – | – | – | – | – | – | – | – |
| Cc1cc(C)c(S(=O)(=O)N(CCCN)OCCCN)c(C)c1 | > 100 | > 100 | > 100 | > 100 | > 100 | > 100 | > 100 | > 100 | > 100 µM | > 100 | > 100 | – | – | – | – | – | – | – | – | – |
| Fc1ccc(C(OCCN2CC3CC2CN3)c2ccc(F)cc2)cc1 (stereo not drawn) | > 100 | > 100 | > 100 | – | – | – | > 100 | > 100 | 52.3 µM | > 100 | > 100 | – | – | – | – | – | – | – | – | – |
| CCN1C(=O)N2C(OC)c3ccccc3C(Br)C2(OC)C1=O (stereo not drawn) | – | > 100 | – | – | – | > 100 | > 100 | > 100 | > 100 µM | – | > 100 | – | – | – | – | – | – | – | – | – |
| N=C(N)c1ccc(N=Nc2c(O)ccc3cc(O)ccc23)cc1 | > 100 | > 100 | > 100 | > 100 | > 100 | > 100 | > 100 | > 100 | > 100 µM | > 100 | > 100 | – | – | – | – | – | – | – | – | – |
| O=C(/C=C\c1ccc(/C=C/C(=O)Nc2cccc(C3=NCCCN3)c2)cc1)Nc1cccc(C2=NCCCN2)c1 | > 100 | > 100 | > 100 | > 100 | > 100 | > 100 | > 100 | – | > 100 µM | > 100 | > 100 | – | – | – | – | – | – | – | – | – |
| CC1=NN(C(=O)c2ccc(C)cc2)C(=O)C1N=Nc1ccccc1C(=O)O (stereo not drawn) | > 100 | > 100 | > 100 | > 100 | > 100 | > 100 | > 100 | – | > 100 µM | > 100 | > 100 | – | – | – | – | – | – | – | – | – |
| CC1CCN(c2cc(-c3cc4ccccc4o3)oc(=O)c2C#N)CC1 | 79 | > 100 | – | > 100 | > 100 | > 100 | > 100 | > 100 | > 100 µM | – | – | – | – | – | – | – | – | – | – | – |
| CCOC(=O)[C@H]1Nc2c(cccc2[N+](=O)[O-])C2c3ccccc3CC21 (stereo partly drawn) | – | > 100 | – | 74.9 | > 100 | > 100 | – | > 100 | > 100 µM | – | > 100 | – | – | – | – | – | – | – | – | – |
| Cc1ccc2oc3c(ccc(=O)n3C)c(=O)c2c1 | > 100 | > 100 | > 100 | > 100 | > 100 | > 100 | > 100 | > 100 | > 100 µM | > 100 | > 100 | – | – | – | – | – | – | – | – | – |
| O=c1[nH]c(=S)[nH]c2c(C3OC(CO)C(O)C3O)nsc12 (stereo not drawn) | > 100 | > 100 | > 100 | > 100 | > 100 | > 100 | > 100 | > 100 | > 100 µM | > 100 | > 100 | – | – | – | – | – | – | – | – | – |
| CCOc1cc(/C=C/C(=O)CC(=O)/C=C/c2ccc(OC(=O)CNCCN(CC)CC)c(OCC)c2)ccc1OC(=O)CNCCN(CC)CC | 6.2 | – | 10.5 | – | 15.9 | 5.43 | 1.66 | 6.38 | 4.56 µM | 24.1 | 6.07 | 3.46 | 0.394 | 1.74 | 2.6 | 1.96 | 0.782 | 3.81 | 2.27 | 2.24 |
